# Earlier results, collected in patent US20220370316A1, “BIOCIDE PRODUCT OF BROAD, CONTINUOUS AND PROLONGUED EFFECT BASED ON ETHANOL, BENZALKONIUM CHLORIDE AND COPPER NANOPARTICLES” (priority 2021, published 2022).
# Key:
# [1] = after topical application
# cutaneous bacteria = conditions: ethanol at 70% concentration, two minutes, skin kept in contact with the alcohol without drying
Compound,time range of effectivity [1],cutaneous bacteria destroyed (cutaneous bacteria)
Alkyl-benzyl-dimethyl ammonium chloride [Benzalkonium chloride],≤ 12 h,–
"CCO [Ethanol, ethanol]",–,approximately 90%
